Experimental data published in patent publication US20070032477A1, “Pteridine derivatives useful for making pharmaceutical compositions” (priority 2003, published 2007).

Assays:
[1] = system: mixed lymphocyte reaction (PBMC with allogeneic PBMC or Eppstein-Barr Virus-transformed human B cells as stimulator cells); test: Mixed lymphocyte reaction (MLR) assay; type: cell-based; conditions: lowest concentration giving 50% suppression of the MLR; [3H]-thymidine
Experimental: Pteridine derivatives were first dissolved (10 mM) in dimethylsulfoxide (hereinafter referred as DMSO) and further diluted in culture medium before use for the following in vitro experiments. The commercially available culture medium consisted of RPMI-1640+10% foetal calf serum (FCS). Some pteridine derivatives described in the previous examples (as indicated in table 1) were tested in the following mixed lymphocyte reaction (MLR) assay.
Peripheral blood mononuclear cells (hereinafter referred as PBMC) were isolated from heparinized peripheral blood by density gradient centrifugation over Lymphoprep (Nycomed, Maorstua, Norway). Allogeneic PBMC or Eppstein-Barr Virus-transformed human B cells [commercially available under the trade name RPM11788 (ATCC name CCL156)] which strongly express B7-1 and B7-2 antigens were used as stimulator cells after irradiation with 30 Gy. MLR was performed in triplicate wells. After 5 days incubation at 37° C., 1 μCi [^3H]-thymidine was added to each cup. After a further 16 hours incubation, cells were harvested and counted in a […]. Inhibition of proliferation by a compound (drug) described in some of the previous examples was counted using the formula: [formula] wherein cpm is the thymidine count per minute. The MLR assay is regarded by those skilled in the art as an in vitro analogue of the transplant rejection since it is based on the recognition of allogeneic major histocompatibility antigens on the stimulator leukocytes, by responding lymphocytes.

[2] = system: production of TNF-α by PBMC in response to stimulation by LPS; test: TNF-α assay; type: cell-based, human; conditions: LPS 1 μg/ml, 72 hours, sandwich ELISA
Experimental: Peripheral blood mononuclear cells (herein referred as PBMC), in response to stimulation by lipopolysaccharide (hereinafter LPS), a gram-negative bacterial endotoxin, produce various […], in particular human TNF-α. Inhibition of the activation of PBMC can therefore be measured by the level of suppression of the production of TNF-α by PBMC in response to stimulation by LPS.
Such inhibition measurement was performed as follows: PBMC were isolated from heparinized peripheral blood by density gradient centrifugation over Lymphoprep (commercially available from Nycomed, Norway). LPS was then added to the PMBC suspension in complete medium (10^6 cells/ml) at a final concentration of 1 μg/ml. The pteridine derivative to be tested was added at different concentrations (0.1 μM, 1 μM and 10 μM) and the cells were incubated at 37° C. for 72 hours in 5% CO2. The supernatants were collected, then TNF-α concentrations were measured with respectively an anti-TNF-α antibody in a sandwich ELISA (Duo Set ELISA human TNFα, commercially available from R&D Systems, United Kingdom). The calorimetric reading of the ELISA was measured by a Multiskan RC plate reader (commercially available from ThermoLabsystems, Finland) at 450 nm (reference wavelength: 690 nm). Data analysis was performed with Ascent software 2.6. (also from ThermoLabsystems, Finland): a standard curve (recombinant human TNFα) was drawn and the amount (pg/ml) of each sample on the standard curve was determined.
The % suppression of human TNFα production by the pteridine derivatives of the invention (drugs) was calculated using the formula: [formula]

SMILES	IC50 [1]	IC50 [2]
COc1ccc(-c2cnc3nc(N)nc(N4CCN(C(=O)c5ccc(C#N)cc5)CC4)c3n2)cc1OC [Example 16, 2-amino-4-[N-(4-cyanobenzoyl)-piperazin-1-yl]-6-(3,4-dimethoxyphenyl)pteridine]	800 nM	550 nM
CCCCc1ccc(C(=O)N2CCN(c3nc(N)nc4ncc(-c5ccc(OC)c(OC)c5)nc34)CC2)cc1 [Example 18, 2-amino-4-[(N-4-butylbenzoyl)-piperazin-1-yl]-6-(3,4-dimethoxyphenyl)pteridine]	300 nM	90 nM
COc1ccc(-c2cnc3nc(N)nc(N4CCN(C(=O)c5ccncc5)CC4)c3n2)cc1OC [Example 19, 2-amino-4-[(N-isonicotinoyl)-piperazin-1-yl]-6-(3,4-dimethoxyphenyl)pteridine]	2400 nM	60 nM
COc1cccc(C(=O)N2CCN(c3nc(N)nc4ncc(-c5ccc(OC)c(OC)c5)nc34)CC2)c1 [Example 26, 2-amino-4-[N-(3-methoxybenzoyl)piperazin-1-yl]-6-(3,4-dimethoxy-phenyl)pteridine]	500 nM	500 nM
COc1ccc(-c2cnc3nc(N)nc(N4CCN(C(=O)c5ccco5)CC4)c3n2)cc1OC [Example 27, 2-amino-4-[N-(2-furoyl)-piperazin-1-yl]-6-(3,4-dimethoxyphenyl)pteridine]	80 nM	500 nM
COc1ccc(-c2cnc3nc(N)nc(N4CCN(C(=O)COCc5ccccc5)CC4)c3n2)cc1OC [Example 28, 2-amino-4-[(N-benzyloxyacetyl)-piperazin-1-yl]-6-(3,4-dimethoxyphenyl)pteridine]	30 nM	500 nM
COc1ccc(-c2cnc3nc(N)nc(N4CCN(C(=O)COc5ccc(Cl)cc5)CC4)c3n2)cc1OC [Example 29]	0.5 nM	77 nM
COc1ccc(-c2cnc3nc(N)nc(N4CCN(C(=O)C5CCCCC5)CC4)c3n2)cc1OC [Example 30, 2-amino-4-[(N-cyclohexylcarbonyl)-piperazin-1-yl]-6-(3,4-dimethoxy-phenyl)pteridine]	100 nM	300 nM
COc1ccc(-c2cnc3nc(N)nc(N4CCN(S(=O)(=O)c5ccccc5)CC4)c3n2)cc1OC [Example 31, 2-amino-4-[(N-phenylsulfonyl)-piperazin-1-yl]-6-(3,4-dimethoxy-phenyl)pteridine]	3000 nM	500 nM
COc1ccc(-c2cnc3nc(N)nc(N4CCN(C(=O)c5ccc(F)cc5)CC4)c3n2)cc1OC [Example 32, 2-amino-4-[(N-p-fluorobenzoyl)-piperazin-1-yl]-6-(3,4-dimethoxyphenyl)pteridine]	400 nM	400 nM
COc1ccc(-c2cnc3nc(N)nc(N4CCN(C(=O)N5CCCC5)CC4)c3n2)cc1OC [Example 38, 2-amino-4-[(N-1-pyrrolidinylcarbonyl)-piperazin-1-yl]-6-(3,4-dimethoxy-phenyl)pteridine]	300 nM	60 nM
COc1ccc(-c2cnc3nc(N)nc(N4CCN(C(=O)N(c5ccccc5)c5ccccc5)CC4)c3n2)cc1OC [Example 39, 2-amino-4-[(N-diphenylcarbamoyl)-piperazin-1-yl]-6-(3,4-dimethoxy-phenyl)pteridine]	700 nM	800 nM
COc1ccc(-c2cnc3nc(N)nc(N4CCN(C(=O)c5ccccc5OC)CC4)c3n2)cc1OC [Example 42, 2-amino-4-[N-(2-methoxybenzoyl)-piperazin-1-yl]-6-(3,4-dimethoxy-phenyl)pteridine]	400 nM	100 nM
COc1ccc(-c2cnc3nc(N)nc(N4CCN(S(=O)(=O)Cc5ccccc5)CC4)c3n2)cc1OC [Example 43, 2-amino-4-[(N-benzylsulfonyl)-piperazin-1-yl]-6-(3,4-dimethoxyphenyl)pteridine]	200 nM	700 nM
COc1ccc(-c2cnc3nc(N)nc(N4CCN(C(=O)c5ccc(Cl)c(Cl)c5)CC4)c3n2)cc1OC [Example 44, 2-amino-4-[N-(3,4-dichlorobenzoyl)-piperazin-1-yl]-6-(3,4-dimethoxy-phenyl)pteridine]	200 nM	700 nM
COc1ccc(-c2cnc3nc(N)nc(N4CCN(C(=O)Cc5ccc(Cl)cc5)CC4)c3n2)cc1OC [Example 45, 2-amino-4-[N-(4-chlorophenylacetyl)-piperazin-1-yl]-6-(3,4-dimethoxy-phenyl)pteridine]	90 nM	400 nM
COc1ccc(-c2cnc3nc(N)nc(N4CCN(C(=O)OCc5ccccc5)CC4)c3n2)cc1OC [Example 48, 2-amino-4-[(N-benzyloxycarbonyl)-piperazin-1-yl]-6-(3,4-dimethoxy-phenyl)pteridine]	300 nM	80 nM
COc1ccc(-c2cnc3nc(N)nc(N4CCN(C(=S)Oc5ccccc5)CC4)c3n2)cc1OC [Example 51, 2-amino-4-[(N-phenoxythiocarbonyl)-piperazin-1-yl]-6-(3,4-dimethoxy-phenyl)pteridine]	300 nM	40 nM
COc1ccc(-c2cnc3nc(N)nc(N4CCN(C(=O)[C@@H](N)Cc5ccccc5)CC4)c3n2)cc1OC [Example 60, 2-amino-4-[N-(2-(S)-amino-3-phenylpropionyl)-piperazin-1-yl]-6-(3,4-dimethoxy-phenyl)pteridine]	4100 nM	2500 nM
COc1ccc(-c2cnc3nc(N)nc(N4CCN(C/C=C/c5ccccc5)CC4)c3n2)cc1OC [Example 66, 2-amino-4-(N-trans-cinnamylpiperazin-1-yl)-6-(3,4-dimethoxy-phenyl)pteridine]	800 nM	300 nM
COc1ccc(-c2cnc3nc(NCCc4ccccc4)nc(N)c3n2)cc1OC [Example 79, 2-phenylethylamino-4-amino-6-(3,4-dimethoxyphenyl)pteridine]	4100 nM	9800 nM
COc1ccc(-c2cnc3nc(N)nc(N4CCCN(C(=O)COc5ccccc5)CC4)c3n2)cc1OC [Example 89]	87 nM	1200 nM
COc1ccc(-c2cnc3nc(N)nc(N4CCN(C(=O)Oc5ccc(C)cc5)CC4)c3n2)cc1OC [Example 90, 2-amino-4-[(N-4-methyl-phenoxy-carbonyl)-piperazin-1-yl]-6-(3,4-dimethoxyphenyl)pteridine]	58 nM	40 nM
COc1ccc(-c2cnc3nc(N)nc(N4CCN(C(=O)Oc5ccc(Cl)cc5)CC4)c3n2)cc1OC [Example 94]	100 nM	90 nM
COc1ccc(-c2cnc3nc(N)nc(N4CCN(C(=O)Oc5ccccc5Cl)CC4)c3n2)cc1OC [Example 96, 2-amino-4-[N-(2-chloro)-phenoxy-carbonyl-piperazin-1-yl]-6-(3,4-dimethoxyphenyl)pteridine]	150 nM	10 nM
COCCOC(=O)N1CCN(c2nc(N)nc3ncc(-c4ccc(OC)c(OC)c4)nc23)CC1 [Example 97]	240 nM	300 nM
COc1ccc(-c2cnc3nc(N)nc(N4CCN(C(=O)Nc5ccccc5)CC4)c3n2)cc1OC [Example 99, 2-amino-4-(N-phenyl-carbamoyl-piperazin-1-yl)-6-(3,4-dimethoxyphenyl)pteridine]	3.4 nM	90 nM
COc1ccc(-c2cnc3nc(N)nc(N4CCN(C(=O)Nc5ccc(C#N)cc5)CC4)c3n2)cc1OC [Example 102, 2-amino-4-(N-4-cyanophenylcarbamoyl-piperazin-1-yl)-6-(3,4-dimethoxyphenyl)pteridine]	74 nM	630 nM
COc1ccc(-c2cnc3nc(N)nc(N4CCN(C(=O)Nc5cccc(C)c5)CC4)c3n2)cc1OC [Example 103, 2-amino-4-(N-3-methylphenylcarbamoyl-piperazin-1-yl)-6-(3,4-dimethoxyphenyl)pteridine]	6.5 nM	100 nM
COc1ccc(-c2cnc3nc(N)nc(N4CCN(C(=O)NCc5ccc(F)cc5)CC4)c3n2)cc1OC [Example 105, 2-amino-4-(N-4-fluorobenzylcarbamoyl-piperazin-1-yl)-6-(3,4-dimethoxyphenyl)pteridine]	37 nM	700 nM
